Test results from patent US20250376461A1, “INDAZOLE DERIVATIVES FOR TREATING TRPM3-MEDIATED DISORDERS” (Katholieke Universiteit Leuven, priority 2022, published 2025).

biological target: T1, mouse TRPM3α2 (mTRPM3) ion channel (Mus musculus, UniProt J9SQF3); assay: TRPM3 ion channel driven Ca2+ uptake, Fluo-4 AM assay, mTRPM3alpha2 overexpressing flip-in HEK293 cells stimulated with pregnenolone sulfate (50 μM); format: cell-based; details: mTRPM3 overexpressing HEK293 cells stimulated with pregnenolone sulfate (50 μM), activity ranges A, B, C
T1 construct: expressed in transfected cells; host or cells: flip-in HEK293
Experimental: Monitoring the TRPM3 Ion Channel Driven Ca2+ Uptake.
In order to monitor the inhibition of the mouse TRPM3α2 (mTRPM3) ion channel by the compounds of the invention, a cellular system making use of an mTRPM3alpha2 or hTRPM3 overexpressing cell line (flip-in HEK293) was used. The TRPM3 channel was stimulated/opened with Pregnenolone sulfate (PS) (50 μM) which results in Ca^2+ influx.
For mTRPM3, the intracellular Ca^2+ was measured with a Calcium responsive dye, Fluor-4 AM ester (Invitrogen). Cells were cultured until a confluence of 80-90%, washed with Versene (Invitrogen) and detached from the surface by a short incubation with 0.05% Trypsin (Invitrogen). The trypsination process was stopped by the addition of complete cell culture medium (DMEM, glutamax, 10% FCS, NEAA, Pen-Strep). Cells were collected and resuspended in Krebs buffer without Calcium at RT.
Prior the cell seeding (±2000 cells/well into a black, 384 well plate (Greiner)) the diluted compound was added in the assay plate, together with the PS dissolved in Krebs buffer containing Calcium. […] Directly after cell addition the plates were read on an Envision fluorescence reader (Perkin Elmer) by an Excitation of 485 nm and emission at 535 nm.
Channel inhibition was calculated compared to a non-PS stimulated control versus a condition stimulated with PS (50 μM) with vehicle. The ability of the compounds of the invention to inhibit this activity was determined as: Percentage inhibition=[1−((RFU determined for sample with test compound present−RFU determined for sample with positive control inhibitor) divided by (RFU determined in the presence of vehicle−RFU determined for sample with positive control inhibitor))]*100.
The activities of the Example compounds cpd 001-262 tested are depicted in the table below. All tested compounds show an activity in the Fluo-4 AM assay. The activity ranges A, B and C refer to IC50 values in the Fluo-4 AM assay as follows: “A”: IC50<1 μM; “B”: 1 μM≤IC50≤20 μM and “C”: IC50>20 μM.

T1 sequence (J9SQF3 1-1709 isoform J9SQF3-12): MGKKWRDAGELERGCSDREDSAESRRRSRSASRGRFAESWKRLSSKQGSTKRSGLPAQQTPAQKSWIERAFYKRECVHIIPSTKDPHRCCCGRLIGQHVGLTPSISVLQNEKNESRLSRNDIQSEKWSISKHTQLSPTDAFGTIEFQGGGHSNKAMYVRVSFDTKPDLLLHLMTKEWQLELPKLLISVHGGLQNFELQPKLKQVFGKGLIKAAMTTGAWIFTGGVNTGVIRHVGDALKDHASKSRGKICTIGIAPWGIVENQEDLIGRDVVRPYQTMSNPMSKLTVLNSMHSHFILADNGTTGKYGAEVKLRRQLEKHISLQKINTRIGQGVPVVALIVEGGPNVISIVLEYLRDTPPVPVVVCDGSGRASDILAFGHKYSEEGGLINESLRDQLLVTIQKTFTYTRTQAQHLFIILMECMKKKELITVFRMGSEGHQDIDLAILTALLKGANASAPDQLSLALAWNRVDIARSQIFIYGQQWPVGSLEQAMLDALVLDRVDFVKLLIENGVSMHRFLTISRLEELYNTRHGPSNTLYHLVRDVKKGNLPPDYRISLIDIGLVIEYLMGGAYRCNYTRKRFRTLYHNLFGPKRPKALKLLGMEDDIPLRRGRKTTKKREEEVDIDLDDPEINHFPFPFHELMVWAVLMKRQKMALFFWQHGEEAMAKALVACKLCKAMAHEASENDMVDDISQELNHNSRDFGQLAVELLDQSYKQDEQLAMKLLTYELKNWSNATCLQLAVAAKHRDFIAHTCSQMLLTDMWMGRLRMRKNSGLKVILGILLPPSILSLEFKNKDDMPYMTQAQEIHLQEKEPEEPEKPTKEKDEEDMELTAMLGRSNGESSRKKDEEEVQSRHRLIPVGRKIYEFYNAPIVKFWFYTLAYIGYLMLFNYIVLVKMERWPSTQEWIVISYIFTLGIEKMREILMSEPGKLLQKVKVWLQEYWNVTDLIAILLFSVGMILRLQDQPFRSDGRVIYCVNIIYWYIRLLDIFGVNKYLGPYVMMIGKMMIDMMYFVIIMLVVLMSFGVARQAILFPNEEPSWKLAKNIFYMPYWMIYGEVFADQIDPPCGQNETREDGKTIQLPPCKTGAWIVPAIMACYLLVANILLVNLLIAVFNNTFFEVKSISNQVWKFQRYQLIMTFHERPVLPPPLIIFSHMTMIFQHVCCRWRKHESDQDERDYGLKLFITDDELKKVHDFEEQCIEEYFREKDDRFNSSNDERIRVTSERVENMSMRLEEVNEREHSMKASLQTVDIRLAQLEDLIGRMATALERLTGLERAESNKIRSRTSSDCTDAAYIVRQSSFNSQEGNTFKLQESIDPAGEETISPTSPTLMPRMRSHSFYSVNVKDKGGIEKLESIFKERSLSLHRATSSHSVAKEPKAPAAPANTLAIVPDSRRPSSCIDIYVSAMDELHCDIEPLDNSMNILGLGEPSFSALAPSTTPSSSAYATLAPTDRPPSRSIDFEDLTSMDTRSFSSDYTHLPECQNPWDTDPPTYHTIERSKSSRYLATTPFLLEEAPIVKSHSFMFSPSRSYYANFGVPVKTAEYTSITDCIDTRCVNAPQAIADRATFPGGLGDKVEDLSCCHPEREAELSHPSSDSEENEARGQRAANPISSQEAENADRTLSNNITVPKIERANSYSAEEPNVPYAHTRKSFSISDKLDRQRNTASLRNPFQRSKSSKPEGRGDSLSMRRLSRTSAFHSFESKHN

IC50	Structure (SMILES)
> 20000 nM	Cc1ccc(COc2ccc3nn(C)c(C(=O)NC4(CO)CCNC4=O)c3c2)cn1 (single isomer, unassigned) [Cpd 169 - En1]
< 1000 nM	Cc1ccc(COc2ccc3nn(C)c(C(=O)NC4(CO)CCNC4=O)c3c2)cn1 (single isomer, unassigned) [Cpd 169 - En2]
1000 to 20000 nM	Cc1ncsc1COc1ccc2nn(C)c(C(=O)NC3(C(N)=O)CCOC3)c2c1 (single isomer, unassigned) [Cpd 170 -En1]
1000 to 20000 nM	Cc1ncsc1COc1ccc2nn(C)c(C(=O)NC3(C(N)=O)CCOC3)c2c1 (single isomer, unassigned) [Cpd 170 -En2]
< 1000 nM	Cn1nc2ccc(OCc3ccccc3F)cc2c1C(=O)NC1(CO)CCNC1=O (single isomer, unassigned) [Cpd 171 -En1]
1000 to 20000 nM	Cn1nc2ccc(OCc3ccccc3F)cc2c1C(=O)NC1(CO)CCNC1=O (single isomer, unassigned) [Cpd 171 -En2]
> 20000 nM	COc1ccc2nn(C)c(C(=O)NC(C)(CO)C(N)=O)c2c1 (single isomer, unassigned) [Cpd 172 - En1]
1000 to 20000 nM	COc1ccc2nn(C)c(C(=O)NC(C)(CO)C(N)=O)c2c1 (single isomer, unassigned) [Cpd 172 - En2]
< 1000 nM	Cn1nc2ccc(OCC3CCC3)cc2c1C(=O)NC(C)(CO)C(N)=O (single isomer, unassigned) [Cpd 173 - En1]
1000 to 20000 nM	Cn1nc2ccc(OCC3CCC3)cc2c1C(=O)NC(C)(CO)C(N)=O (single isomer, unassigned) [Cpd 173 - En2]
1000 to 20000 nM	Cc1ccc(COc2ccc3nn(C)c(C(=O)NC(C)(CO)C(N)=O)c3c2)cn1 (single isomer, unassigned) [Cpd 174 - En1]
< 1000 nM	Cc1ccc(COc2ccc3nn(C)c(C(=O)NC(C)(CO)C(N)=O)c3c2)cn1 (single isomer, unassigned) [Cpd 174 - En2]
< 1000 nM	Cn1nc2ccc(OCc3ccccc3C(F)F)cc2c1C(=O)NC1(C(N)=O)CCOC1 (single isomer, unassigned) [Cpd 175 - En1]
1000 to 20000 nM	Cn1nc2ccc(OCc3ccccc3C(F)F)cc2c1C(=O)NC1(C(N)=O)CCOC1 (single isomer, unassigned) [Cpd 175 - En2]
< 1000 nM	Cn1nc2ccc(OCc3ccccc3C(F)F)cc2c1C(=O)NC1(CO)CCNC1=O (single isomer, unassigned) [Cpd 176 - En1]
1000 to 20000 nM	Cn1nc2ccc(OCc3ccccc3C(F)F)cc2c1C(=O)NC1(CO)CCNC1=O (single isomer, unassigned) [Cpd 176 - En2]
< 1000 nM	Cn1nc2ccc(OCc3cccnc3C(F)(F)F)cc2c1C(=O)NC1(CO)CCNC1=O (single isomer, unassigned) [Cpd 177 - En1]
1000 to 20000 nM	Cn1nc2ccc(OCc3cccnc3C(F)(F)F)cc2c1C(=O)NC1(CO)CCNC1=O (single isomer, unassigned) [Cpd 177 - En2]
< 1000 nM	Cn1nc2ccc(OCc3cccnc3C(F)(F)F)cc2c1C(=O)NC1(C(N)=O)CCOC1 (single isomer, unassigned) [Cpd 178 - En1]
< 1000 nM	Cn1nc2ccc(OCc3cccnc3C(F)(F)F)cc2c1C(=O)NC1(C(N)=O)CCOC1 (single isomer, unassigned) [Cpd 178 - En2]
1000 to 20000 nM	Cc1ncc(COc2ccc3nn(C)c(C(=O)NC(C)(CO)C(N)=O)c3c2)o1 (single isomer, unassigned) [Cpd 179 - En1]
< 1000 nM	Cc1ncc(COc2ccc3nn(C)c(C(=O)NC(C)(CO)C(N)=O)c3c2)o1 (single isomer, unassigned) [Cpd 179 - En2]
< 1000 nM	Cn1nc2ccc(OCc3cccnc3)cc2c1C(=O)NC1(CO)CCNC1=O (single isomer, unassigned) [Cpd 180 - En1]

IC50	Structure (SMILES)
1000 to 20000 nM	Cn1nc2ccc(OCc3cccnc3)cc2c1C(=O)NC1(CO)CCNC1=O (single isomer, unassigned) [Cpd 180 - En2]
> 20000 nM	Cc1ccc(COc2ccc3nn(C)c(C(=O)NC(C)(CO)C(N)=O)c3c2)nc1 (single isomer, unassigned) [Cpd 181 - En1]
1000 to 20000 nM	Cc1ccc(COc2ccc3nn(C)c(C(=O)NC(C)(CO)C(N)=O)c3c2)nc1 (single isomer, unassigned) [Cpd 181 - En2]
< 1000 nM	Cc1ncsc1COc1ccc2nn(C)c(C(=O)NC(C)(CO)CC(F)F)c2c1 (single isomer, unassigned) [Cpd 182 - En1]
< 1000 nM	Cc1ncsc1COc1ccc2nn(C)c(C(=O)NC(C)(CO)CC(F)F)c2c1 (single isomer, unassigned) [Cpd 182 - En2]
< 1000 nM	CNC(=O)C1(NC(=O)c2c3cc(OCc4cccnc4C(F)(F)F)ccc3nn2C)CCOC1 (single isomer, unassigned) [Cpd 183 - En1, 2-methyl-N-[3-(methylcarbamoyl)oxolan-3-yl]-5-{[2-(trifluoromethyl)pyridin-3-yl]methoxy}-2H-indazole-3-carboxamide]
1000 to 20000 nM	CNC(=O)C1(NC(=O)c2c3cc(OCc4cccnc4C(F)(F)F)ccc3nn2C)CCOC1 (single isomer, unassigned) [Cpd 183 - En2, 2-methyl-N-[3-(methylcarbamoyl)oxolan-3-yl]-5-{[2-(trifluoromethyl)pyridin-3-yl]methoxy}-2H-indazole-3-carboxamide]
1000 to 20000 nM	Cc1ncsc1COc1ccc2nn(C)c(C(=O)NC(C)(CO)C(=O)N(C)C)c2c1 (single isomer, unassigned) [Cpd 184 - En1]
1000 to 20000 nM	Cc1ncsc1COc1ccc2nn(C)c(C(=O)NC(C)(CO)C(=O)N(C)C)c2c1 (single isomer, unassigned) [Cpd 184 - En2]
1000 to 20000 nM	CNC(=O)C(C)(CO)NC(=O)c1c2cc(OCc3scnc3C)ccc2nn1C (single isomer, unassigned) [Cpd 185 - En1, 3-hydroxy-N,2-dimethyl-2-({2-methyl-5-[(4-methyl-1,3-thiazol-5-yl)methoxy]-2H-indazol-3-yl}formamido)propanamide]
< 1000 nM	CNC(=O)C(C)(CO)NC(=O)c1c2cc(OCc3scnc3C)ccc2nn1C (single isomer, unassigned) [Cpd 185 - En2, 3-hydroxy-N,2-dimethyl-2-({2-methyl-5-[(4-methyl-1,3-thiazol-5-yl)methoxy]-2H-indazol-3-yl}formamido)propanamide]
1000 to 20000 nM	CN(C)C(=O)C1(NC(=O)c2c3cc(OCc4cccnc4C(F)(F)F)ccc3nn2C)CCOC1 (single isomer, unassigned) [Cpd 186 - En1]
1000 to 20000 nM	CN(C)C(=O)C1(NC(=O)c2c3cc(OCc4cccnc4C(F)(F)F)ccc3nn2C)CCOC1 (single isomer, unassigned) [Cpd 186 - En2]
> 20000 nM	Cn1nc2ccc(OCC(F)F)cc2c1C(=O)NC(C)(CO)C(N)=O (single isomer, unassigned) [Cpd 187 - En1]
1000 to 20000 nM	Cn1nc2ccc(OCC(F)F)cc2c1C(=O)NC(C)(CO)C(N)=O (single isomer, unassigned) [Cpd 187 - En2]
1000 to 20000 nM	CCn1nc2ccc(OCc3ccccn3)cc2c1C(=O)NC(C)(CO)C(N)=O (single isomer, unassigned) [Cpd 188 - En1, 2-({2-ethyl-5-[(pyridin-2-yl)methoxy]-2H-indazol-3-yl}formamido)-3-hydroxy-2-methylpropanamide]
< 1000 nM	CCn1nc2ccc(OCc3ccccn3)cc2c1C(=O)NC(C)(CO)C(N)=O (single isomer, unassigned) [Cpd 188 - En2, 2-({2-ethyl-5-[(pyridin-2-yl)methoxy]-2H-indazol-3-yl}formamido)-3-hydroxy-2-methylpropanamide]
1000 to 20000 nM	Cn1nc2ccc(OCc3cccnc3)cc2c1C(=O)NC(C)(CO)C(N)=O (single isomer, unassigned) [Cpd 190 - En1]
< 1000 nM	Cn1nc2ccc(OCc3cccnc3)cc2c1C(=O)NC(C)(CO)C(N)=O (single isomer, unassigned) [Cpd 190 - En2]
< 1000 nM	Cn1nc2ccc(OCc3ccccc3C(F)F)cc2c1C(=O)NC(C)(CO)C(N)=O (single isomer, unassigned) [Cpd 191 - En1]
< 1000 nM	Cn1nc2ccc(OCc3ccccc3C(F)F)cc2c1C(=O)NC(C)(CO)C(N)=O (single isomer, unassigned) [Cpd 191 - En2]
1000 to 20000 nM	CN(C)C(=O)C(C)(CO)NC(=O)c1c2cc(OCc3cccnc3C(F)(F)F)ccc2nn1C (single isomer, unassigned) [Cpd 193 - En1, 3-hydroxy-N,N,2-trimethyl-2-[(2-methyl-5-{[2-(trifluoromethyl)pyridin-3-yl]methoxy}-2H-indazol-3-yl)formamido]propanamide]
